# Calls of active or inactive are those of the source. The calls are words filed in the database; no cut-off is given here. Peptide text beside a SMILES is read from it.
# Assays:
# [1] = tested on: Staphylococcus aureus; assay: Antibacterial activity against methicillin-resistant Staphylococcus aureus ATCC 43300 incubated overnight by standard microtiter dilution method; assay type: functional
# [2] = tested on: Cell membrane; assay: Induction of cytoplasmic membrane depolarization in Salmonella typhimurium DT104 assessed as increase in fluorescence intensity at 2 times of MIC incubated for 15 mins by DiSC3-5 dye based fluorescence method; assay type: subcellular; conditions: Salmonella enterica subsp. enterica serovar Typhimurium
# [3] = tested on: RAW264.7; assay: Anti-inflammatory activity in mouse RAW264.7 cells assessed as inhibition of LPS-induced IL-4 mRNA expression at 15 ug/ml preincubated with compound for 30 mins followed by LPS stimulation and measured after 4 hrs by RT-PCR analysis; assay type: functional, cell-based; conditions: dose 15.0 µg/ml, time 4.5 hrs
# [4] = tested on: Salmonella typhimurium; assay: Antibacterial activity against Salmonella typhimurium DT104 infected in mouse RAW264.7 cells assessed as bacterial killing at 1 times of MIC measured after 90 mins by MH agar based serial dilution method relative to control; assay type: functional, Salmonella enterica subsp. enterica serovar Typhimurium; conditions: 1.5 h
compound,measurement,setting,value
C[C@@H](O)[C@H](NC(=O)[C@H](CS)NC(=O)[C@H](CCCCN)NC(=O)[C@H](Cc1c[nH]c2ccccc12)NC(=O)[C@H](CCCCN)NC(=O)[C@@H](N)Cc1c[nH]c2ccccc12)C(=O)N[C@@H](CCCCN)C(=O)N[C@@H](CO)C(=O)NCC(=O)N[C@@H](CS)C(=O)N[C@@H](CCCCN)C(=O)N[C@@H](Cc1c[nH]c2ccccc12)C(=O)N[C@@H](CCCCN)C(=O)N[C@@H](Cc1c[nH]c2ccccc12)C(N)=O (H-WKWKCTKSGCKWKW-NH2),MIC,[1],8 µg/mL
same,Activity,[2],Active
same,inhibition,[3],Active
same,Activity,[4],>99.9%

# Reference: ChEMBL document CHEMBL5352429, “Designed symmetrical β-hairpin peptides for treating multidrug-resistant salmonella typhimurium infections” (Eur J Med Chem, 2022)
